In ChEMBL document CHEMBL1201862, “PubChem BioAssay data set” (2004):
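Compound exposure: 48 hours, 5 concentrations, 96-well plates. The concentration for 50% growth inhibition is given as GI50.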 The source made the active and inactive calls. Rule as the data show it: active = GI50 up to about 1.1 µM and inactive = higher.

Columns and labels:
Assay in all cases: NCI anticancer screen, dose series, 48 h
786-0 = system: 786-0
A549 = system: A549
DU-145 = system: DU-145
HCT-116 = system: HCT-116
HL-60 = system: HL-60
HOP-92 = system: HOP-92
K562 = system: K562
M14 = system: M14
MCF7 = system: MCF7
MDA-MB-231 = system: MDA-MB-231
MDA-MB-435 = system: MDA-MB-435
MDA-N = system: MDA-N
Malme-3M = system: Malme-3M
OVCAR-4 = system: OVCAR-4
OVCAR-8 = system: OVCAR-8
RPMI-8226 = system: RPMI-8226
U-251 = system: U-251
UACC-257 = system: UACC-257
UACC-62 = system: UACC-62
SF-539 = system: SF-539

Measured: GI50

CC[S+]1C2=C(CC(C)(C)CC2=O)[N-]c2ccccc21 (centres undefined)
inactive: 786-0 > 100 µM | A549 > 100 µM | DU-145 > 100 µM | HCT-116 > 100 µM | HL-60 > 100 µM | HOP-92 > 100 µM | K562 > 100 µM | M14 > 100 µM | MCF7 24.4 µM | MDA-MB-231 > 100 µM | MDA-MB-435 > 100 µM | MDA-N > 100 µM | Malme-3M > 100 µM | OVCAR-4 > 100 µM | OVCAR-8 > 100 µM | RPMI-8226 > 100 µM | U-251 > 100 µM | UACC-257 > 100 µM | UACC-62 > 100 µM

CC1(C)[C@@H]2CC[C@]1(C)[C@H](OC(=O)CSC#N)C2
inactive: 786-0 18.3 µM | A549 > 100 µM | DU-145 > 100 µM | HCT-116 40.4 µM | HOP-92 > 100 µM | M14 47.1 µM | MCF7 65.9 µM | MDA-MB-231 > 100 µM | MDA-MB-435 46.2 µM | MDA-N > 100 µM | Malme-3M > 100 µM | OVCAR-4 > 100 µM | OVCAR-8 34.2 µM | SF-539 28.7 µM | U-251 > 100 µM | UACC-257 > 100 µM | UACC-62 > 100 µM

COC(=O)C1=Cc2cc(OC)c(O)cc2[C@@H](c2ccc(O)c(OC)c2)[C@@H]1C(=O)OC
inactive: 786-0 > 100 µM | A549 > 100 µM | DU-145 > 100 µM | HCT-116 > 100 µM | HL-60 > 100 µM | HOP-92 53.7 µM | K562 57.3 µM | M14 > 100 µM | MCF7 > 100 µM | MDA-MB-231 39.2 µM | MDA-MB-435 45.5 µM | MDA-N 36.9 µM | Malme-3M > 100 µM | OVCAR-8 > 100 µM | RPMI-8226 > 100 µM | SF-539 > 100 µM | U-251 > 100 µM | UACC-257 > 100 µM

OCCCN(CCc1ccc(Cl)c(Cl)c1)CCN1CCCC1
inactive: 786-0 24 µM | A549 58.2 µM | DU-145 > 100 µM | HCT-116 47.9 µM | HL-60 34.4 µM | HOP-92 > 100 µM | K562 19.5 µM | M14 17.4 µM | MCF7 27.4 µM | MDA-MB-231 32.5 µM | MDA-MB-435 22.3 µM | MDA-N 17.3 µM | Malme-3M 23.9 µM | OVCAR-4 > 100 µM | OVCAR-8 > 100 µM | RPMI-8226 26.5 µM | U-251 48.1 µM | UACC-257 19.3 µM | UACC-62 16.9 µM

Cn1c(=O)c2c(ncn2CCSS(=O)(=O)O)n(C)c1=O
inactive: 786-0 > 100 µM | A549 > 100 µM | DU-145 > 100 µM | HCT-116 > 100 µM | HOP-92 > 100 µM | K562 > 100 µM | M14 72.3 µM | MCF7 > 100 µM | MDA-MB-231 45.9 µM | MDA-MB-435 > 100 µM | MDA-N > 100 µM | Malme-3M > 100 µM | OVCAR-4 > 100 µM | OVCAR-8 > 100 µM | RPMI-8226 > 100 µM | SF-539 > 100 µM | U-251 45.8 µM | UACC-257 > 100 µM | UACC-62 53.2 µM

CCCCCCCCCCCCCCN [TETRADECYLAMINE]
inactive: 786-0 > 100 µM | DU-145 > 100 µM | HCT-116 > 100 µM | HL-60 > 100 µM | HOP-92 > 100 µM | K562 > 100 µM | MCF7 > 100 µM | MDA-MB-231 > 100 µM | MDA-MB-435 > 100 µM | MDA-N > 100 µM | Malme-3M > 100 µM | OVCAR-4 > 100 µM | OVCAR-8 > 100 µM | RPMI-8226 > 100 µM | U-251 > 100 µM | UACC-257 > 100 µM | UACC-62 > 100 µM
